From patent publication US11331284B2 (UNM Rainforest Innovations, priority 2017, dated 2022)

Key:
[1] = in humans; reference 1; cited from earlier work
[2] = tested on: bone marrow derived macrophages from wild type (autophagy, LC3 puncta); test: ambroxol dose response assay, LC3 puncta quantified by Cellomics, wild type cells; format: cell-based
[3] = tested on: bone marrow derived macrophages from ATG5 knockouts (autophagy, LC3 puncta); test: ambroxol dose response assay, LC3 puncta quantified by Cellomics, ATG5 knockout cells; format: cell-based
Text: The inventors next studied the same assay, described above, but in ATG5 knockout cells.

[4] = tested on: TFEB nuclear translocation; test: ambroxol induction of TFEB nuclear translocation; format: cell-based

For `Nc1c(Br)cc(Br)cc1CN[C@H]1CC[C@H](O)CC1` [ambroxol, trans-4-[(2-amino-3,5-dibromobenzyl)amino]cyclohexanol], the plasma half-life [1] is given as 3.72 h, the “concentration as low as which had a positive effect on autophagy” value ([2]; LC3 puncta, pp242 induction = 100%, t test v. control p=0.025, FIG. 3) is given as 6.25 µM and the “dose response of autophagy induction” value ([2]; ambroxol 0 to 200 uM, FIG. 3) is given as “higher ambroxol concentrations result in higher induction of autophagy”. For the same compound, the “dose response of autophagy induction” value ([3]; FIG. 4) was “clear dose response”, the “concentration as low as which gave appreciable increases in autophagy” value ([3]; LC3 puncta, t test v. control p=0.0008, FIG. 4) was 6.25 µM and the “concentration at which significant increases were observed” value ([4]; FIGS. 5 and 6) was 25 µM. For the same compound, the EC50 ([4]; read-out: concentration giving 50% of maximal autophagy induced by ambroxol (sigmoidal fit), both data sets, FIGS. 5 and 6) was about 50 µM.
